In ChEMBL document CHEMBL5325488, “Discovery of SMD-3040 as a Potent and Selective SMARCA2 PROTAC Degrader with Strong in vivo Antitumor Activity” (J Med Chem, 2023):
Calls of active or inactive are those of the source. The calls are words filed in the database; no cut-off is given here.

Key:
[1] = biological target: T1, von Hippel-Lindau disease tumor suppressor/SWI/SNF-related matrix-associated actin-dependent regulator of chromatin subfamily A member 2 (Homo sapiens, UniProt P51531+P40337); experiment: PROTAC activity at VHL/wild-type SMARCA2 in human SK-MEL-28 cells assessed as induction of SMARCA2 degradation at 0.001 to 1000 nM incubated for 24 hrs by Western blotting analysis relative to control; format: cell-based; conditions: dose 0.001-1000 nM
Target sequence in this assay (P40337 whole entry, looked up): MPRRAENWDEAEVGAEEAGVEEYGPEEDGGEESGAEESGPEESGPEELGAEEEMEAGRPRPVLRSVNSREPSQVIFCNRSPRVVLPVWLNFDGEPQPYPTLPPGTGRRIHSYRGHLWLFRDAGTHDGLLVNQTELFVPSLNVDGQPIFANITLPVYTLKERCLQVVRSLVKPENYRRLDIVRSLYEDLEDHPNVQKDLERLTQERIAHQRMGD
Target sequence in this assay (P51531 whole entry, looked up): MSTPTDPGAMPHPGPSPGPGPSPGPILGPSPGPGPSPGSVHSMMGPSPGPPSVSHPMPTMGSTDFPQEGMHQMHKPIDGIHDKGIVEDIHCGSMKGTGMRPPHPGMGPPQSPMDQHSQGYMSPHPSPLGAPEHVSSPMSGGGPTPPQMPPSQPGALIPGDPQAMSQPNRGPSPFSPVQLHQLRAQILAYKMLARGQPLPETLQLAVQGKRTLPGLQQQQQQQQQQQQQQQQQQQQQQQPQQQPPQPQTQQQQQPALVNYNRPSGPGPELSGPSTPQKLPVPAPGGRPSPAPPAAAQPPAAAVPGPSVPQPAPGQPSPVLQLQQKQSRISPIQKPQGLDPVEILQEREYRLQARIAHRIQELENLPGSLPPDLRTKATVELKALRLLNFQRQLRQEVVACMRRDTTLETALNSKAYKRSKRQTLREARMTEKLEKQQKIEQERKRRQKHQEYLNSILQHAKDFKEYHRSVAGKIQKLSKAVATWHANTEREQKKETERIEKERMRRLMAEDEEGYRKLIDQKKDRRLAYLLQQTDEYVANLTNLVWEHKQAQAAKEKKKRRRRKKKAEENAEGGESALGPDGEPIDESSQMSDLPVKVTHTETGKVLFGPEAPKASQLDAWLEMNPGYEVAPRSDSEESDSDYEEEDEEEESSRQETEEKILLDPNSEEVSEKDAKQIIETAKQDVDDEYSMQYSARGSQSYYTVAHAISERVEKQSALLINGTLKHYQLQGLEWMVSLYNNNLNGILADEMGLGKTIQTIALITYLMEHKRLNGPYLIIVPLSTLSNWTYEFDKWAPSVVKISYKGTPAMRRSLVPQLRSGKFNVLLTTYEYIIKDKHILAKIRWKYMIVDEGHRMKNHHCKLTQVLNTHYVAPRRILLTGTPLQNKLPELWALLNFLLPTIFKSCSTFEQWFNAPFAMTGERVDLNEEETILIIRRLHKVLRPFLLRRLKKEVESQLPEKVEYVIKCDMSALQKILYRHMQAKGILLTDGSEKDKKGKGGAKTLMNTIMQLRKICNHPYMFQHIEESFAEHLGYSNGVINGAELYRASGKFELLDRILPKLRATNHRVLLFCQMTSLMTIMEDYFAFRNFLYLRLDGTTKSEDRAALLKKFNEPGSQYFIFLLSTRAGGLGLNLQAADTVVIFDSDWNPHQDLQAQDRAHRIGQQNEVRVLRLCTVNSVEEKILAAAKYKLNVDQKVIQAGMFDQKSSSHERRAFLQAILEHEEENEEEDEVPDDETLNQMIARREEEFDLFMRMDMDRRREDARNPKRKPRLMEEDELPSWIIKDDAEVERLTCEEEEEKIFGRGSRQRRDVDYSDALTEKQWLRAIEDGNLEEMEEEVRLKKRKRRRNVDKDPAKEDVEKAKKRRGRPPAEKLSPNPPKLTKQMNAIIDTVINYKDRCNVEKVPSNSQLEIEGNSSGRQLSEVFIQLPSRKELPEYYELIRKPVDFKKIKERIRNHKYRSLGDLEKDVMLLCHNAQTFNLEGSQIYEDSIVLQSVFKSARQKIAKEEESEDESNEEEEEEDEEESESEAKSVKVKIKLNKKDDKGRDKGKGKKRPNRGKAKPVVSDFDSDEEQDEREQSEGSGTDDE

[2] = biological target: T2, von Hippel-Lindau disease tumor suppressor/SWI/SNF-related matrix-associated actin-dependent regulator of chromatin subfamily A member 4 (Homo sapiens, UniProt P51532+P40337); experiment: PROTAC activity at VHL/wild-type SMARCA4 in human SK-MEL-28 cells assessed as induction of SMARCA4 degradation incubated for 24 hrs by Western blotting analysis; format: cell-based
[3] = biological target: T1, von Hippel-Lindau disease tumor suppressor/SWI/SNF-related matrix-associated actin-dependent regulator of chromatin subfamily A member 2; experiment: PROTAC activity at VHL/wild-type SMARCA2 in human NCI-H838 cells assessed as induction of SMARCA2 degradation incubated for 24 hrs by Western blotting analysis; format: cell-based
Target sequence in this assay (P51531 whole entry): as the sequence (P51531 whole entry, looked up) above
Target sequence in this assay (P40337 whole entry): as the sequence (P40337 whole entry, looked up) above

[4] = biological target: T1, von Hippel-Lindau disease tumor suppressor/SWI/SNF-related matrix-associated actin-dependent regulator of chromatin subfamily A member 2; experiment: PROTAC activity at VHL/C-terminal HiBiT fused SMARCA2 in human HeLa cells assessed as induction of SMARCA2 degradation at 0.0001 to 1 uM incubated for 1 hr by Nano-Glo HiBiT analysis relative to control; format: cell-based; conditions: dose 0.0001-1 µM
Target sequence in this assay (P40337 whole entry, looked up): as above
Target sequence in this assay (P51531 whole entry, looked up): as the sequence (P51531 whole entry, looked up) above

[5] = biological target: T1, von Hippel-Lindau disease tumor suppressor/SWI/SNF-related matrix-associated actin-dependent regulator of chromatin subfamily A member 2; experiment: PROTAC activity at VHL/C-terminal HiBiT fused SMARCA2 in human HeLa cells assessed as induction of SMARCA2 degradation incubated for 6 hrs by Nano-Glo HiBiT analysis; format: cell-based
Target sequence in this assay (P51531 whole entry): as the sequence (P51531 whole entry, looked up) above
Target sequence in this assay (P40337 whole entry): as the sequence (P40337 whole entry, looked up) above

[6] = biological target: T1, von Hippel-Lindau disease tumor suppressor/SWI/SNF-related matrix-associated actin-dependent regulator of chromatin subfamily A member 2; experiment: PROTAC activity at VHL/C-terminal HiBiT fused SMARCA2 in human HeLa cells assessed as induction of SMARCA2 degradation by measuring maximal efficacy at 0.0001 to 1 uM incubated for 48 hrs by Nano-Glo HiBiT analysis relative to control; format: cell-based; conditions: dose 0.0001-1 µM
Target sequence in this assay (P40337 whole entry, looked up): as above
Target sequence in this assay (P51531 whole entry, looked up): as the sequence (P51531 whole entry, looked up) above

[7] = biological target: T2, von Hippel-Lindau disease tumor suppressor/SWI/SNF-related matrix-associated actin-dependent regulator of chromatin subfamily A member 4; experiment: PROTAC activity at VHL/C-terminal HiBiT fused SMARCA4 in human HeLa cells assessed as induction of SMARCA4 degradation incubated for 3 hrs by Nano-Glo HiBiT analysis; format: cell-based
[8] = biological target: T2, von Hippel-Lindau disease tumor suppressor/SWI/SNF-related matrix-associated actin-dependent regulator of chromatin subfamily A member 4; experiment: PROTAC activity at VHL/C-terminal HiBiT fused SMARCA4 in human HeLa cells assessed as induction of SMARCA4 degradation incubated for 48 hrs by Nano-Glo HiBiT analysis; format: cell-based
[9] = biological target: T1, von Hippel-Lindau disease tumor suppressor/SWI/SNF-related matrix-associated actin-dependent regulator of chromatin subfamily A member 2; experiment: PROTAC activity at VHL/C-terminal HiBiT fused SMARCA2 in human HeLa cells assessed as induction of SMARCA2 degradation pre-treated with (2S,4R)-1-((S)-2-acetamido-3,3-dimethylbutanoyl)-4-hydroxy-N-((S)-1-(4-(4-methylthiazol-5-yl)phenyl)ethyl)pyrrolidine-2-carboxamide for 2 hrs followed by compound treatment for 24 hrs by Nano-Glo HiBiT analysis; format: cell-based
Target sequence in this assay (P40337 whole entry, looked up): as the sequence (P40337 whole entry, looked up) above
Target sequence in this assay (P51531 whole entry, looked up): as the sequence (P51531 whole entry, looked up) above

NCI-H1299 = experiment: Antiproliferative activity against SMARCA4-deficient human NCI-H1299 cells assessed as cell growth inhibition measured after 7 days by WST-8 assay; format: functional; conditions: NCI-H1299, 168 h, time 7 day
[10] = Antiproliferative activity against SMARCA4-deficient human NCI-H1568 cells assessed as cell growth inhibition measured after 7 days by WST-8 assay; format: functional; conditions: NCI-H1568, 168 h, time 7 day
NCI-H838 = experiment: Antiproliferative activity against SMARCA4-deficient human NCI-H838 cells assessed as cell growth inhibition by measuring maximal efficacy measured after 7 days by WST-8 assay relative to control; format: functional; conditions: time 7 day
NCI-H1944 = experiment: Antiproliferative activity against SMARCA4-deficient human NCI-H1944 cells assessed as cell growth inhibition by measuring maximal efficacy measured after 7 days by WST-8 assay relative to control; format: functional; conditions: time 7 day
NCI-H1793 = experiment: Antiproliferative activity against SMARCA4-deficient human NCI-H1793 cells assessed as cell growth inhibition by measuring maximal efficacy measured after 7 days by WST-8 assay relative to control; format: functional; conditions: time 7 day
NCI-H647 = experiment: Antiproliferative activity against human NCI-H647 cells expressing wild-type SMARCA2 assessed as cell growth inhibition by measuring maximal efficacy measured after 7 days by WST-8 assay relative to control; format: functional; conditions: time 7 day
[11] = biological target: T1, von Hippel-Lindau disease tumor suppressor/SWI/SNF-related matrix-associated actin-dependent regulator of chromatin subfamily A member 2; experiment: In vivo PROTAC activity at VHL/SMARCA2 in SCID mouse xenografted with human NCI-H838 cells assessed as remaining activity in tumor at 50 mg/kg, iv administered as single dose measured after 48 hrs by Western blotting analysis (reference value: 100 +/- 7% ); format: functional, organism-based
Target sequence in this assay (P40337 whole entry, looked up): as the sequence (P40337 whole entry, looked up) above
Target sequence in this assay (P51531 whole entry, looked up): as the sequence (P51531 whole entry, looked up) above

[12] = biological target: T1, von Hippel-Lindau disease tumor suppressor/SWI/SNF-related matrix-associated actin-dependent regulator of chromatin subfamily A member 2; experiment: In vivo PROTAC activity at VHL/SMARCA2 in SCID mouse xenografted with human MV4-11 cells assessed as reduction of SMARCA2 level in tumor at 50 mg/kg, iv administered as single dose measured after 2 hrs by Western blotting analysis; format: ADME, organism-based; set-up: scale not given: the % may be the effect or the level left
Target sequence in this assay (P51531 whole entry): as the sequence (P51531 whole entry, looked up) above
Target sequence in this assay (P40337 whole entry): as the sequence (P40337 whole entry, looked up) above

[13] = biological target: T1, von Hippel-Lindau disease tumor suppressor/SWI/SNF-related matrix-associated actin-dependent regulator of chromatin subfamily A member 2; experiment: In vivo PROTAC activity at VHL/SMARCA2 in SCID mouse xenografted with human MV4-11 cells assessed as remaining activity in tumor at 50 mg/kg, iv administered as single dose measured after 2 hrs by Western blotting analysis (reference value: 100 +/- 15 % ); format: ADME, organism-based
Target sequence in this assay (P51531 whole entry): as the sequence (P51531 whole entry, looked up) above
Target sequence in this assay (P40337 whole entry): as the sequence (P40337 whole entry, looked up) above

[14] = biological target: T1, von Hippel-Lindau disease tumor suppressor/SWI/SNF-related matrix-associated actin-dependent regulator of chromatin subfamily A member 2; experiment: In vivo PROTAC activity at VHL/SMARCA2 in SCID mouse xenografted with human MV4-11 cells assessed as remaining activity in tumor at 50 mg/kg, iv administered as single dose measured after 96 hrs by Western blotting analysis (reference value: 100 +/- 15 % ); format: ADME, organism-based
Target sequence in this assay (P51531 whole entry): as the sequence (P51531 whole entry, looked up) above
Target sequence in this assay (P40337 whole entry): as the sequence (P40337 whole entry, looked up) above

[15] = biological target: T2, von Hippel-Lindau disease tumor suppressor/SWI/SNF-related matrix-associated actin-dependent regulator of chromatin subfamily A member 4; experiment: In vivo PROTAC activity at VHL/SMARCA4 in SCID mouse xenografted with human MV4-11 cells assessed as reduction of SMARCA4 level in tumor at 50 mg/kg, iv administered as single dose measured after 6 hrs by Western blotting analysis; format: ADME, organism-based; set-up: scale not given: the % may be the effect or the level left
[16] = biological target: T2, von Hippel-Lindau disease tumor suppressor/SWI/SNF-related matrix-associated actin-dependent regulator of chromatin subfamily A member 4; experiment: In vivo PROTAC activity at VHL/SMARCA4 in SCID mouse xenografted with human MV4-11 cells assessed as remaining activity in tumor at 50 mg/kg, iv administered as single dose measured after 6 hrs by Western blotting analysis (reference value: 100 +/- 15 % ); format: ADME, organism-based
[17] = biological target: T2, von Hippel-Lindau disease tumor suppressor/SWI/SNF-related matrix-associated actin-dependent regulator of chromatin subfamily A member 4; experiment: In vivo PROTAC activity at VHL/SMARCA4 in SCID mouse xenografted with human MV4-11 cells assessed as remaining activity in tumor at 50 mg/kg, iv administered as single dose measured after 96 hrs by Western blotting analysis (reference value: 100 +/- 15 % ); format: ADME, organism-based
[18] = Drug concentration in SCID mouse plasma xenografted with human MV4-11 cells at 50 mg/kg, iv measured after 96 hrs by LC-MS/MS method; format: ADME, organism-based
[19] = Drug concentration in SCID mouse tumor xenografted with human MV4-11 cells at 50 mg/kg, iv measured after 2 hrs by LC-MS/MS method; format: ADME, organism-based, Neoplasm; conditions: read-out: Ct
[20] = Drug concentration in SCID mouse tumor xenografted with human MV4-11 cells at 50 mg/kg, iv measured after 6 hrs by LC-MS/MS method; format: ADME, organism-based, Neoplasm; conditions: read-out: Ct
[21] = Toxicity in SCID mouse xenografted with human SK-MEL-5 cells assessed as effect on change in body weight at 25 to 50 mg/kg, iv administered twice a week measured after 32 days; format: organism-based; conditions: in vivo, 768 h, dose 25-50 mg/kg, time 32 day
[22] = Toxicity in SCID mouse xenografted with human SK-MEL-5 cells assessed as effect on change in body weight at 50 mg/kg, iv administered twice a week measured after 3 weeks; format: organism-based; conditions: in vivo, 504 h

T2 sequence (P51532 whole entry): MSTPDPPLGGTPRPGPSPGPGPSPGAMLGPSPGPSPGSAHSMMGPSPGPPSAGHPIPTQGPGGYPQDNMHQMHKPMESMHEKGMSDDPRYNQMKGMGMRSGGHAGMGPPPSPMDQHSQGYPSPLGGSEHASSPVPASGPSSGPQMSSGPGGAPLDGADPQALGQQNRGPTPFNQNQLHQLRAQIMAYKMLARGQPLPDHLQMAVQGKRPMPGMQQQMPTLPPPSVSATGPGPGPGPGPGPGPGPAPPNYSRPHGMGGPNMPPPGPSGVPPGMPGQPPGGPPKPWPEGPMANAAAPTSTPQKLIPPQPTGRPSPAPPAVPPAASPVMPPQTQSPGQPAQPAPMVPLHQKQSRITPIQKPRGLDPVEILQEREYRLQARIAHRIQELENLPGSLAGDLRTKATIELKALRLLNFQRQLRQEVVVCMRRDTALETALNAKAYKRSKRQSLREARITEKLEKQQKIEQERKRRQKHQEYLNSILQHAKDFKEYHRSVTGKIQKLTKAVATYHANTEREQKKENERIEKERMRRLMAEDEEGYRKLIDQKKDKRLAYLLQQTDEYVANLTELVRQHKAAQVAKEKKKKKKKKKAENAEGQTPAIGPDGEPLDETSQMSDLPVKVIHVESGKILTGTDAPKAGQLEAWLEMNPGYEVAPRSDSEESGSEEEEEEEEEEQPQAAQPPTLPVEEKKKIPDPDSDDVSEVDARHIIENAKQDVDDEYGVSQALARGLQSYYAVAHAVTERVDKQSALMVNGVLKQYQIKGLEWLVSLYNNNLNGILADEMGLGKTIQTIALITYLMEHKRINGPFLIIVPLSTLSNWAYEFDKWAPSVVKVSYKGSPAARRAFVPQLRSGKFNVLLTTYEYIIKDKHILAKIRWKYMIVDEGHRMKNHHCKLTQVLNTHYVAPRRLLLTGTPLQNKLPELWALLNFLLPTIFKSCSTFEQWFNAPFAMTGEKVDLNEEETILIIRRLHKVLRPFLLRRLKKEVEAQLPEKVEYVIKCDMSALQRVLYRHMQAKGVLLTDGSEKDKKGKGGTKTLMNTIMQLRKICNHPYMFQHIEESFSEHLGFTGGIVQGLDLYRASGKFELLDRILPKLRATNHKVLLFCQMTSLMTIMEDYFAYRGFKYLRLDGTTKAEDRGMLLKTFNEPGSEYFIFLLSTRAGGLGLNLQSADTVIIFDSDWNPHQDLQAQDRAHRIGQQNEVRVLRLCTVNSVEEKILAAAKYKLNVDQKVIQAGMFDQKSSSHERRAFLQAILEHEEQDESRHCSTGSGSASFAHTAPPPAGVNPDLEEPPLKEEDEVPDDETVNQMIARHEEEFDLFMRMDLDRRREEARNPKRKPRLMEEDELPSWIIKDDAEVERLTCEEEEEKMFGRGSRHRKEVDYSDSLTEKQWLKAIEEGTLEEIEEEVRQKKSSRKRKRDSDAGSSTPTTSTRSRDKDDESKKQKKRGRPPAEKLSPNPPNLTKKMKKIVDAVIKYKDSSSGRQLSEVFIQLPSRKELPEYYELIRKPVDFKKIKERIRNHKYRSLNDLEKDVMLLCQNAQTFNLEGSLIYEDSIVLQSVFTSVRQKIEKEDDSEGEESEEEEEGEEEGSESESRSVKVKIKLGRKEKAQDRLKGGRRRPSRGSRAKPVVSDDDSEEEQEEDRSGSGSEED
T2 sequence (P40337 whole entry): as the sequence (P40337 whole entry, looked up) above

Emax [1]: 98%
DC50 [2]: > 1000 nM
DC50 [3]: 63 nM
Emax [4]: 66%
DC50 [5]: 44 nM
Emax [6]: 94%
DC50 [7]: > 3300 nM
DC50 [8]: 174 nM
Activity [9]: inactive
GI50 (NCI-H1299): > 10000 nM
Activity [11]: 25%
Activity [12]: 78%
Activity [13]: 22%
Activity [14]: 26%
Activity [15]: 17%
Activity [16]: 83%
Activity [17]: 84%
concentration at 96 h [18]: 19.6 ng/mL
concentration at 2 h [19]: 3420 ng/g
concentration at 6 h [20]: 1100 ng/g
SMILES: Cc1ncsc1-c1ccc([C@H](C)NC(=O)[C@@H]2C[C@@H](O)CN2C(=O)[C@@H](NC(=O)[C@H]2CC[C@H](CN3CC4(CCC(n5cc(-c6cc(-c7ccccc7O)nnc6N)cn5)CC4)C3)CC2)C(C)(C)C)cc1
GI50 [10]: 8.8 nM
Imax (NCI-H838): 83%
Imax (NCI-H1944): 88%
Imax (NCI-H1793): 69%
Imax (NCI-H647): 74%
Activity [21]: Non-Toxic
Activity [22]: Non-Toxic
